Measured values as given in ChEMBL document CHEMBL1122767, “Synthesis, resolution, absolute stereochemistry, and enantioselectivity of 3',4'-dihydroxynomifensine” (J Med Chem, 1984).

What was measured:
D(2) dopamine receptor = D(2) dopamine receptor (Rattus norvegicus, UniProt P61169); test: Concentration that produces 50 % displacement of specific [3H]spiroperidol binding to rat caudate membrane preparations.
[1] = Concentration that produces 50 % displacement of specific [3H]clonidine binding to Alpha adrenergic receptor in rat brain cortical membrane preparations.; assay type: cell membranes
[2] = target: T1, cyclic AMP phosphoprotein (Rattus norvegicus, UniProt Q712U5); test: Effective concentration that gives maximal stimulation of cyclic AMP production over the concentration range tested; b=Inactive; assay type: functional
T1 sequence (Q712U5 whole entry): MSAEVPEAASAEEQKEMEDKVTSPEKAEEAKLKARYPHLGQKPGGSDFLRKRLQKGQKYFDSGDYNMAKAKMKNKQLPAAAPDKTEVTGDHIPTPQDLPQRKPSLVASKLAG

D(2) dopamine receptor, sequence (P61169 whole entry): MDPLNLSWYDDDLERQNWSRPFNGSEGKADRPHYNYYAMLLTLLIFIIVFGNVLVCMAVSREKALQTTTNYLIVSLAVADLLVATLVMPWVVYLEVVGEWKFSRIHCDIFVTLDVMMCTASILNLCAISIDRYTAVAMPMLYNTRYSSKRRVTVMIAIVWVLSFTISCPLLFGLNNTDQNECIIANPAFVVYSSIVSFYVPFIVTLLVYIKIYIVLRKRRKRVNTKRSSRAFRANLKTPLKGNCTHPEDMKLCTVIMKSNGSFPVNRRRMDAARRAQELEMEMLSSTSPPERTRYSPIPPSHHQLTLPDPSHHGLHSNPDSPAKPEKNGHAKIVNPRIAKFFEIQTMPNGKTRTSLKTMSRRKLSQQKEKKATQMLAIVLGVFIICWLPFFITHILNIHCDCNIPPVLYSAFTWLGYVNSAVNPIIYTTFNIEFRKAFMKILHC

For CN1Cc2c(N)cccc2C(c2ccc(O)c(O)c2)C1 (stereo not drawn), the IC50 (D(2) dopamine receptor) was 92 µM and the IC50 [1] was 1.39 µM.

Work on NCCc1ccc(O)c(O)c1 [DOPAMINE] yielded an IC50 [1] of 0.061 µM.

With CN1Cc2c(N)cccc2[C@@H](c2ccc(O)c(O)c2)C1 the EC50 [2] was “Not Active”, the IC50 (D(2) dopamine receptor) was 99.1 µM and the IC50 [1] was 27.7 µM.

CN1Cc2c(N)cccc2[C@H](c2ccc(O)c(O)c2)C1 showed an IC50 (D(2) dopamine receptor) of 85.8 µM and an IC50 [1] of 0.6 µM.
